# Experimental data: article PMC6736866, “Electron cryomicroscopy observation of acyl carrier protein translocation in type I fungal fatty acid synthase” (Scientific Reports, 2019)
# Experiments:
# [1] = target: T1, S. cerevisiae type I fungal fatty acid synthase (FAS) (Saccharomyces cerevisiae, UniProt P07149+P19097); assay: cryoEM structure; type: binding; conditions: ER domain (beta chain); Apo state and KS-stalled state
# T1 construct: gene FAS1; endogenous alpha6beta6 heterododecamer, native purification by anti-FLAG; C-terminal 3xFLAG on FAS1 (beta) kept; beta 230 kDa, alpha 220 kDa; holo-ACP
# T1 sequence (P07149 whole entry, the tested form may be a part): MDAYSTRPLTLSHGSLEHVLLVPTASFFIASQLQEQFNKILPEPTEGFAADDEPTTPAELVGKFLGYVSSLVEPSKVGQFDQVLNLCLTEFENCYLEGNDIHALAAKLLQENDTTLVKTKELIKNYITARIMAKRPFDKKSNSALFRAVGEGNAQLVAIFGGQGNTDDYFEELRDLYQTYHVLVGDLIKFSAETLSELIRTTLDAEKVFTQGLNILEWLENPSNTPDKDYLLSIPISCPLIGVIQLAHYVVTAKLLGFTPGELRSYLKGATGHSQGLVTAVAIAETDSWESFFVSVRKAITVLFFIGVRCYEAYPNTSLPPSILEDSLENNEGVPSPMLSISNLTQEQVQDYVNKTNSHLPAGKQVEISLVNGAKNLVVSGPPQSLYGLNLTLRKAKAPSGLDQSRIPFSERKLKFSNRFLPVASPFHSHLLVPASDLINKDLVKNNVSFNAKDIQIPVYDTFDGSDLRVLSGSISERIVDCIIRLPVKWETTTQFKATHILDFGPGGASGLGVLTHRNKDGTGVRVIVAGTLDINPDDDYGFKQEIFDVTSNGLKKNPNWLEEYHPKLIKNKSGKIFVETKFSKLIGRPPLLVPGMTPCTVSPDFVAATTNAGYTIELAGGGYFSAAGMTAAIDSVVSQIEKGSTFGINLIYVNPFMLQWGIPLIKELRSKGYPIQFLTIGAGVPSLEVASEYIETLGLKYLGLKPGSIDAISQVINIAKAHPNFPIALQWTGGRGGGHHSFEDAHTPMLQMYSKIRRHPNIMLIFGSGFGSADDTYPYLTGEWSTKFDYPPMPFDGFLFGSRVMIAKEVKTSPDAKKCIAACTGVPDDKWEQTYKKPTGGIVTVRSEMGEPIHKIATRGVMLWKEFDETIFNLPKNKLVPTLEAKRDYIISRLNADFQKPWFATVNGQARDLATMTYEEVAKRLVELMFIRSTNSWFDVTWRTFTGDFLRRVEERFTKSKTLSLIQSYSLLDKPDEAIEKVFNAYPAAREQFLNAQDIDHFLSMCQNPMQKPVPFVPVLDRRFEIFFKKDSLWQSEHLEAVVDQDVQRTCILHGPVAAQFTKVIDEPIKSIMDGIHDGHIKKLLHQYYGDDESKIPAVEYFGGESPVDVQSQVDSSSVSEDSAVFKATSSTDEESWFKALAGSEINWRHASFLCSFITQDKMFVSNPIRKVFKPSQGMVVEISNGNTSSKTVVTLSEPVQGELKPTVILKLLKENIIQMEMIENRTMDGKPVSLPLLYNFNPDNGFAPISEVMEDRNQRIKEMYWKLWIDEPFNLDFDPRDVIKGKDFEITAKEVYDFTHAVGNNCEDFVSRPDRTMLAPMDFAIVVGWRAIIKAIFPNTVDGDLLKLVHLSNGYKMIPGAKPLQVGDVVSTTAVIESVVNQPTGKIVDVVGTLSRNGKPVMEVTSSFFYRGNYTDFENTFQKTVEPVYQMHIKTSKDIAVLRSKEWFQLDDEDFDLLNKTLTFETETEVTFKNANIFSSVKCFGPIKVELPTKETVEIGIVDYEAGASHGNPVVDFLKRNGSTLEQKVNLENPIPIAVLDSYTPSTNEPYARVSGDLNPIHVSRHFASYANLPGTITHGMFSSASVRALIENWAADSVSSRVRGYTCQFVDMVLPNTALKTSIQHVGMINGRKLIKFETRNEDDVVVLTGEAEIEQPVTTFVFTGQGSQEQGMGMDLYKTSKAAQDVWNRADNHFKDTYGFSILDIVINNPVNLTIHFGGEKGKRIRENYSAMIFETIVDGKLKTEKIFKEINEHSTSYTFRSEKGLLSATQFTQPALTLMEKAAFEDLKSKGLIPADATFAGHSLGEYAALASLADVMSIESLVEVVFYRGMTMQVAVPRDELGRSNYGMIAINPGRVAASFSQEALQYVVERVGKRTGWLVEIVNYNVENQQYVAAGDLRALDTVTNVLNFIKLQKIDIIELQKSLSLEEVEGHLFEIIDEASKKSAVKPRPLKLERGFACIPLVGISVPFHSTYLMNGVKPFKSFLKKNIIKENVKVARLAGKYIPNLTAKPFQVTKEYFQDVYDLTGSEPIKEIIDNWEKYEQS
# T1 sequence (P19097 whole entry, the tested form may be a part): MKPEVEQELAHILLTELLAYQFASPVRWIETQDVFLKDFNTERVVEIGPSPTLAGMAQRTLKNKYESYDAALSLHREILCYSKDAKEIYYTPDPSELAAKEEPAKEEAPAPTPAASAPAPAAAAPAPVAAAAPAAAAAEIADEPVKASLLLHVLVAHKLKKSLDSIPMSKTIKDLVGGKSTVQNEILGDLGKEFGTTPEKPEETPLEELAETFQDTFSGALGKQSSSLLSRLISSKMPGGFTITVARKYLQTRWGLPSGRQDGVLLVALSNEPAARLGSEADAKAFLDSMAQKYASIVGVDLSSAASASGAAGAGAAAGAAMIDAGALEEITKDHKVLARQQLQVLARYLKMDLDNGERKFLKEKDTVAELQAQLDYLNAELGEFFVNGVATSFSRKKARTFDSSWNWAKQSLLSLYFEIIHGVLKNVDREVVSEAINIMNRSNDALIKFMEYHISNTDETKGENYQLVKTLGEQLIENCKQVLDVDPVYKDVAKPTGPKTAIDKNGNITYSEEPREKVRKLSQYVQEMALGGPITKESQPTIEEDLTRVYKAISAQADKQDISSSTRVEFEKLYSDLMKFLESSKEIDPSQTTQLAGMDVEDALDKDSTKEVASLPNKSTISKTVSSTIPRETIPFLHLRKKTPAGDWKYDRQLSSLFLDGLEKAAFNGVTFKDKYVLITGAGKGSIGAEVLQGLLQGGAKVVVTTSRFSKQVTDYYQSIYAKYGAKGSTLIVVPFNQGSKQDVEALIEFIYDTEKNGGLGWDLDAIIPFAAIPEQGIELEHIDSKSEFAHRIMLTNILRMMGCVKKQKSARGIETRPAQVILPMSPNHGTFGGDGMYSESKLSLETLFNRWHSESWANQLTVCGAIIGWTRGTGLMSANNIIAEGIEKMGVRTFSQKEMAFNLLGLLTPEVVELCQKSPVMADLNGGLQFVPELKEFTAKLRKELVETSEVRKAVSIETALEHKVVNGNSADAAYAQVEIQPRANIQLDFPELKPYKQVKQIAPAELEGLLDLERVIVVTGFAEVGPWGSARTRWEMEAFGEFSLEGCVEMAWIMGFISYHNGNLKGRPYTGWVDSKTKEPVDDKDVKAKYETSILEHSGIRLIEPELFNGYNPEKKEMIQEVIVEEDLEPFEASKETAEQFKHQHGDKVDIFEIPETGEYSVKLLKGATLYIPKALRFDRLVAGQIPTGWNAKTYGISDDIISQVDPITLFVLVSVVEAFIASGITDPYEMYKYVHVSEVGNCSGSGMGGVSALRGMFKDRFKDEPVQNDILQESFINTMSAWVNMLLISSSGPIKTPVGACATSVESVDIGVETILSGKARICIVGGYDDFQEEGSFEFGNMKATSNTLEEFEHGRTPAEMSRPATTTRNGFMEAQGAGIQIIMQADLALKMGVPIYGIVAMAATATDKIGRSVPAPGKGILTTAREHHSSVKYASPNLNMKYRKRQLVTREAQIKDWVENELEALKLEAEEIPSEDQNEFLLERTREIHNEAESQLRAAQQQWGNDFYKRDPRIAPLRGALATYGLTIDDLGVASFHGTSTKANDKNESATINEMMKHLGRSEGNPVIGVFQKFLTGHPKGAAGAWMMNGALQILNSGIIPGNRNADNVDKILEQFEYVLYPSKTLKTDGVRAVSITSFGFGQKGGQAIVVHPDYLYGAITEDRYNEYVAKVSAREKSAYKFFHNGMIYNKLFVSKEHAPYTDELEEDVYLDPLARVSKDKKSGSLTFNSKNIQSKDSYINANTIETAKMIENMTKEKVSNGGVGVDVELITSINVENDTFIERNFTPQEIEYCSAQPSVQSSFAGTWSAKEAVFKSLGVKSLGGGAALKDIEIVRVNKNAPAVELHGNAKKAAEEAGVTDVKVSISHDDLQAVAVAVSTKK
# [2] = target: T2, C. albicans type I fungal fatty acid synthase (FAS) (Candida albicans, UniProt P34731+P43098); assay: cryoEM structure; type: binding; conditions: ER domain (beta chain); Apo state and KS-stalled state
# T2 construct: gene FAS1; endogenous alpha6beta6 complex, native purification by anti-FLAG; C-terminal 6xHIS-3xFLAG on FAS1 (beta) kept; holo-ACP
# [3] = target: T1, S. cerevisiae type I fungal fatty acid synthase (FAS); assay: cryoEM structure; NADPH oxidation at […] nm; type: biochemical; conditions: ER domain near FMN (beta chain); KS-stalled state, 3 mM NADPH, cerulenin-inhibited; weak density, partial binding
# [4] = target: T2, C. albicans type I fungal fatty acid synthase (FAS); assay: cryoEM structure; NADPH oxidation at […] nm; type: biochemical; conditions: ER domain near FMN (beta chain); KS-stalled state, 3 mM NADPH, cerulenin-inhibited; weak density, partial binding
# [5] = target: T1, S. cerevisiae type I fungal fatty acid synthase (FAS); type: biochemical
structure (smiles),measurement,setting,value
Cc1cc2nc3c(=O)[nH]c(=O)nc-3n(C[C@H](O)[C@H](O)[C@H](O)COP(=O)(O)O)c2cc1C [flavin mononucleotide],cryoEM structure,[1],the catalytic histidine side chain is in a single conformation facing FMN
same,cryoEM structure,[2],"catalytic histidine can be modeled with two side chain orientations, one facing FMN"
NC(=O)C1=CN([C@@H]2O[C@H](COP(=O)(O)OP(=O)(O)OC[C@H]3O[C@@H](n4cnc5c(N)ncnc54)[C@H](OP(=O)(O)O)[C@@H]3O)[C@@H](O)[C@H]2O)C=CC1 [NADPH],cryoEM structure; NADPH oxidation at 340 nm,[3],Weak NADPH density can also be seen in proximity of FMN
same,cryoEM structure; NADPH oxidation at 340 nm,[4],Weak density can be seen for the NADPH in proximity of FMN
C/C=C/C/C=C/CCC(=O)[C@H]1O[C@H]1C(N)=O [cerulenin],not named,[5],"are sensitive to cerulenin, a covalent KS-inhibitor"
